Measurements: patent US5073566A, “Angiotensin II antagonist 1,3-imidazoles and use thereas” (Eli Lilly and Company, priority 1989, dated 1991)
Where a name gives a salt, the structure may show the parent alone. Read-outs that look alike come from different tables or passages of the source.

Columns and labels:
angiotensin II receptor = assay: Adrenal Glomerulosa Test System: I125-angiotensin II binding to adrenal membranes; details: percent inhibition of I125 angiotensin binding at 10^-5 M of antagonist; rat adrenal membranes; 0.1 nM I125-angiotensin II
Description: The ability for compounds of Formula I to block angiotensin II receptor binding was determined using the adrenal glomerulosa assay.
Binding of I^125 -angiotensin II to adrenal membranes was routinely carried out in 96-well filtration plates. Adrenal membranes were prepared from the capsular portion (glomerulosal layer attached) of rat adrenal glands by differential centrifugation. Briefly, capsules were homogenized in a solution containing sucrose, 250 mM; MgCl2, 1 mM; and tris, 5 mM at pH 7.5 and 4° C. using a polytron at setting 5 for 20 seconds. The homogenate was stirred, gently, for 15 minutes at 4° C. and then centrifuged 10 minutes, at 1000×g, 4° C. The supernatant was centrifuged 30 minutes, at 30,000 ×g, 4° C. and the resulting pellet resuspended in 50 mM tris. Membrane preparations were stored in aliquots at -70° C. until used. Binding of I^125 -angiotensin II to adrenal membranes was performed at room temperature for 90 minutes in 96-well plates containing a hydrophilic polyvinylidene fluoride membrane (0.45 μm, millipore-GV multiscreen). Each 250 μl incubate contained the following (final concentration): tris, 50 mM; NaCl, 120 mM; MgCl2, 5 mM; dithiothrietol 1 mM; bovine serum albumin, 0.05%; I^125 -angiotensin II, 0.1 nM; and adrenal membrane protein, 8-15 μg. Antagonists were added in concentrations from 10 nM to 100 μM. Non-specific binding was measured in the presence of 0.1 μM Sar1, Ile8 angiotensin II. Binding was terminated by vacuum filtration. Receptor-ligand complex trapped on filters was washed 3 times with 300 μl ice-cold wash solution (tris, 50 mM; NaCl, 120 mM; MgCl2, 5 mM; dithiothrietol, 1 mM). Filter discs were dried, punched out and counted in a gamma counter at 52% efficiency. Specific binding represented 96% of total binding (approximately 150 fmol angiotensin II/mg protein). Data are expressed as the percent inhibition of I^125 angiotensin binding at 10^-5 M of antagonist.

[1] = target: T1, angiotensin-induced vasoconstriction (rabbit aorta) (Oryctolagus cuniculus, UniProt P34976); assay: Rabbit Aorta Test System: antagonism of angiotensin II-induced contraction of aortic rings; type: cell-based, New Zealand white rabbits
T1 construct: the thoracic aortas were removed and cleaned of excess fat and connective tissue; from tissue; host or cells: thoracic aorta rings of New Zealand white rabbits
T1 sequence (P34976 1-359): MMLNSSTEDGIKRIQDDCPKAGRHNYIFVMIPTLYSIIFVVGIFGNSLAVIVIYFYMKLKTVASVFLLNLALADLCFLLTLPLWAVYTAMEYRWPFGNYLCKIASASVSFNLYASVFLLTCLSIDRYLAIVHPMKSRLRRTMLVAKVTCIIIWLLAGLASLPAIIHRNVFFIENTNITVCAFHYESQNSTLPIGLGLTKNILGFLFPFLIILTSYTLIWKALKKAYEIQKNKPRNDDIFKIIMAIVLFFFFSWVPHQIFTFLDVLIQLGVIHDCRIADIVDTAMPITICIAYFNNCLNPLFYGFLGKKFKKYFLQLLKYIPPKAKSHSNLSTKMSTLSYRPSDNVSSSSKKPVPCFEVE
Description: The ability to antagonize angiotensin-induced vasoconstriction was evaluated in the rabbit aorta test system.
New Zealand white rabbits (Hazelton, 2-3 kg) were sacrificed by cervical dislocation and the thoracic aortas were removed and cleaned of excess fat and connective tissue. Rings of tissue (3 mm wide) were mounted in 10 ml tissue baths between 2 L-shaped stainless steel hooks. The lower hook was attached to a stationary rod and the upper hook to a force displacement transducer (Grass model FT.03). The bath chambers were maintained at 37° C., aerated with 95% O2 /5% CO2, and contained physiological solution of the following composition (mM): NaCl, 117; glucose, 5.6; NaH2 PO4, 1.0; MgSO4, 0.7; KCl, 5.2; CaCl2, 1.8; NaHCO3, 26; and phentolamine HCl, 0.003.
Rings were equilibrated for 1 hour with 2 g of tension. During the equilibration period, the tissues were washed by overflow every 15 minutes. Rings were then exposed to 10^-8 M angiotensin II (AII) and were allowed to contract until a steady state was reached. Tissues were then washed every 15 minutes for 1 hour. This was repeated every hour until the AII response stabilized. A cumulative concentration-response curve to AII (10^-10 to 10^-7 M) was then obtained. At the conclusion of the concentration-response curve, tissues were washed every 2 minutes until baseline tension was reached, then every 15 minutes for 30 minutes. Compounds were added in a volume of 10 μl DMSO and allowed to incubate for 30 minutes before repeating the concentration-response curve to AII. Contractions to AII were expressed as a percent of the maximum contraction obtained in the control curve (the first AII concentration-response curve). EC50 's (concentration that contracted the tissues to 1/2 the control maximum) for each curve were calculated using a 4 parameter logistics model (NonLin, SAS institute).

[2] = pA2 = -log KB, KB = [molar concentration of antagonist]/[(EC50 AII with antagonist/EC50 AII without antagonist)-1], 30 min incubation, AII 10^-10 to 10^-7 M, read-out: Rabbit Aorta (pA2) (converted)

Row | SMILES | Adrenal Glomerulosa (% Inhibition of Binding) (angiotensin II receptor) [%] | Kb [1, 2] [nM] | Kb [1] [nM]
1 | CCCCCCC(C(=O)OCC)c1ccc(NC(=O)c2ccccc2C(=O)O)cc1 (stereo not drawn) [Example 9, 4-[(2-Carboxybenzoyl)amino]-α-hexylbenzene-acetic acid ethyl ester] | 25 | 18200 | –
2 | CCCCCCC(C(=O)OCC)n1cnc(NC(=O)C(O)(c2ccccc2)c2ccccc2)c1 (stereo not drawn) [Example 14, α-Hexyl-4-[(diphenylhydroxyacetyl)amino]-1H-imidazole-1-acetic acid ethyl ester] | 2 | – | 55000
3 | CCCCCCC(C(=O)OCC)n1cnc(NC(=O)C2c3ccccc3-c3ccccc32)c1 (stereo not shown) [Example 15, 4-[(9H-Fluoren-9-ylcarbonyl)amino]-αhexyl-1H-imidazole-1-acetic acid ethyl ester] | 5 | 75900 | –
4 | CCCCCCC(C(=O)OCC)c1ccc(NC(=O)C2c3ccccc3-c3ccccc32)cc1 (stereo not drawn) [Example 18, 4-[(9H-Fluoren-9-ylcarbonyl)amino]-α-hexylbenzeneacetic acid ethyl ester] | 3 | 794000 | –
5 | CCCCCCC(C(=O)O)n1cnc(NC(=O)C(CC)(c2ccccc2)c2ccccc2)c1 (stereo not drawn) [Example 26, α-Hexyl-4-[(1-oxo-2,2-diphenylbutyl)amino]-1H-imidazole-1-acetic acid] | 57 | 10200 | –
6 | CCCCCCC(C(=O)O)n1cnc(NC(=O)c2ccc(C)cc2C(=O)O)c1 (stereo not drawn) [Example 28, α-Hexyl-4-[(2-carboxy-4-methylbenzoyl)amino]-1H-imidazole-1-acetic a cid] | 10 | 3470 | –
7 | CCCCCCC(C(=O)O)n1cnc(NC(=O)C(O)(c2ccccc2)c2ccccc2)c1 (stereo not drawn) [Example 29, α-Hexyl-[(hydroxydiphenylacetyl)amino]-1H-imidazole-1-acetic acid hydrochloride] | – | – | 25700
8 | CCCCCCC(C(=O)O)n1cnc(NC(=O)C2c3ccccc3-c3ccccc32)c1 (stereo not drawn) [Example 31, α-Hexyl-9-[(9H-fluoren-9-ylcarbonyl)amino]-1H-imidazole-1-acetic acid hydrochloride] | 70 | 3090 | –
9 | CCCCCCC(C(=O)O)n1cnc(NC(=O)C2c3ccccc3Oc3ccccc32)c1.Cl.O (stereo not drawn) [Example 32, α-Hexyl-4-[(9H-xanthen-9-ylcarbonyl)amino]-1H-imidazole-1-acetic acid hydrochloride monohydrate] | 54 | 21400 | –
10 | CCCCCCC(C(=O)O)n1cnc(NC(=O)c2c(C(=O)O)ccc3ccccc23)c1 (stereo not drawn) [Example 35, α-Hexyl-4-{[(2-carboxy-1-naphthalenyl)carbonyl]amino}-1H-imidazole-1-acetic acid] | 36 | 2630 | –
11 | CCCCCCC(C(=O)O)n1cnc(NC(=O)c2cc(C(=O)O)ccc2O)c1 (stereo not drawn) [Example 36, α-Hexyl-4-[(2-hydroxy-5-carboxybenzoyl)amino]-1H-imidazole-1-acetic acid] | 5 | 11700 | –
12 | CCCCCCC(C(=O)O)n1cnc(NC(=O)c2c(F)cccc2C(=O)O)c1 (stereo not drawn) [Example 37, 4-[(2-Carboxy-6-fluorobenzoyl)amino]-α-hexyl-1H-imidazole-1-acetic a cid hydrate (1:2.5)] | 0 | 1580 | –
13 | CCCCCCC(C(=O)O)c1ccc(NC(=O)c2ccccc2C(=O)O)cc1 (stereo not drawn) [Example 38, α-Hexyl-4-[(2-carboxybenzoyl)amino]benzeneacetic acid] | 30 | 1660 | –
14 | CCCCCCC(C(=O)O)n1cnc(NC(=O)c2c(C(=O)O)cccc2[N+](=O)[O-])c1 (stereo not drawn) [Example 40, α-Hexyl-4-[(2-carboxy-6-nitrobenzoyl)-amino]-1H-imidazole-1-acetic a cid] | 9 | 1620 | –
15 | CCCCCCC(C(=O)O)n1cnc(NC(=O)c2ccccc2-c2nnn[nH]2)c1.O (stereo not drawn) [Example 42, α-Hexyl-4-{[2-(tetrazol-5-yl)benzoyl]-amino}-1H-imidazole-1-acetic a cid monohydrate] | 58 | 331 | –
16 | CCCCCCC(C(=O)O)n1cnc(C(=O)NC2c3ccccc3-c3ccccc32)c1.Cl (stereo not drawn) [Example 44, α-Hexyl-4-{[(9H-fluoren-9-yl)amino]-carbonyl}-1H-imidazole-1-acetic acid hydrochloride] | 67 | 3980 | –
17 | CCCCCCC(C(=O)O)n1cnc(NC(=O)c2cccc([N+](=O)[O-])c2C(=O)O)c1.O (stereo not drawn) [Example 45, α-Hexyl-4-[(2-carboxy-3-nitrobenzoyl)-amino]-1H-imidazole-1-acetic a cid hydrate] | 0 | 4170 | –
18 | CCCCCCC(C(=O)O)c1ccc(NC(=O)C2(O)c3ccccc3-c3ccccc32)cc1 (stereo not drawn) [Example 46, α-Hexyl-4-[(9-hydroxy-9H-fluoren-9-ylcarbonyl)-amino]benzeneacetic acid] | 39 | – | 43700
19 | CCCCCCC(C(=O)O)n1nnc(NC(=O)c2ccccc2C(=O)O)n1 (stereo not drawn) [Example 47, 5-[(2-Carboxybenzoyl)amino]-α-hexyl-2H-tetrazole-2-acetic acid] | 39 | 5010 | –
20 | CCCCCCC(C(=O)O)n1cnc(C(=O)NCc2ccc(O)cc2)c1.Cl (stereo not drawn) [Example 81, α-Hexyl-4-({[(4-hydroxyphenyl)methyl]-amino}carbonyl)-1H-imidazole-1-acetic acid hydrochloride] | 41 | – | –
21 | CCCCCCC(C(=O)O)n1cnc(C(=O)Nc2ccccc2O)c1.Cl (stereo not drawn) [Example 82, α-Hexyl-4-{[(2-hydroxyphenyl)amino]-carbonyl}-1H-imidazole-1-acetic acid hydrochloride] | 62 | – | –
22 | CCCCC(C(=O)O)n1cnc(C(=O)Nc2ccc(O)cc2)c1.Cl (stereo not drawn) [Example 88, α-Butyl-4-{[(4-hydroxyphenyl)amino]-carbonyl}-1H-imidazole-1-acetic acid hydrochloride] | 22 | – | –
23 | CCCCCCC(C(=O)O)n1cnc(NC(=O)c2cccc(NC(C)=O)c2C(=O)O)c1 (stereo not drawn) [Example 97, α-Hexyl-4-{[3-(acetylamino)-2-carboxybenzoyl]amino}-1H-imidazole-1-acetic acid hemihydrate] | – | 240 | –

Now from value to compound, other results behind:

Row | Adrenal Glomerulosa (% Inhibition of Binding) (angiotensin II receptor) [%] | Kb [1, 2] [nM] | SMILES | Kb [1] [nM]
24 | 39 | 3310 | CCCCCCC(C(=O)OCC)n1cnc(NC(=O)c2ccccc2C(=O)O)c1 (stereo not drawn) [Example 5, 4-[(2-Carboxybenzoyl)amino]-α-hexyl-1H-imidazole-1-acetic acid ethyl ester] | –
25 | 57 | 2340 | CCCCCCC(CC(=O)OC)n1cnc(NC(=O)c2ccccc2C(=O)O)c1 (stereo not drawn) [Example 10, 4-[(2-Carboxybenzoyl)amino]-β-hexyl-1H-imidazole-1-propanoic acid methyl ester] | –
26 | 44 | 2510 | CCCCCCC(C#N)n1cnc(NC(=O)c2ccccc2C(=O)O)c1 (stereo not drawn) [Example 12, 4-[(2-Carboxybenzoyl)amino]-α-hexyl-1H-imidazole-1-acetonitrile] | –
27 | 64 | 141 | CCCCCCC(CC(=O)O)n1cnc(NC(=O)c2cccc(O)c2C(=O)O)c1.O (stereo not drawn) [Example 27, β-Hexyl-4-[(2-carboxy-3-hydroxybenzoyl)amino]-1H-imidazole-1-propanoic acid hydrate] | –
28 | 66 | 110 | CCCCCCC(C(=O)O)n1cnc(NC(=O)c2cccc(O)c2C(=O)O)c1 (stereo not drawn) [Example 30, α-Hexyl-4-[(2-carboxy-3-hydroxybenzoyl)amino]-1H-imidazole-1-acetic monohydrate] | –
29 | 42 | 631 | CCCCCCC(C(=O)O)n1cnc(NC(=O)c2ccccc2C(=O)O)c1 (stereo not drawn) [Example 33, 4-[(2-Carboxybenzoyl)amino]-α-hexyl-1H-imidazole-1-acetic acid] | –
30 | 31 | 1910 | CCCCCCC(C(=O)O)n1cnc(NC(=O)Cc2ccccc2C(=O)O)c1.O (stereo not drawn) [Example 34, α-Hexyl-4-{[(2-carboxyphenyl)acetyl]-amino}-1H-imidazole-1-aceticacid hydrate] | –
31 | 44 | 661 | CCCCCCC(CC(=O)O)n1cnc(NC(=O)c2ccccc2C(=O)O)c1.O (stereo not drawn) [Example 39, 4-[(2-Carboxybenzoyl)amino]-β-hexyl-1H-imidazole-1-propanoic acid monohydrate] | –
32 | 30 | 646 | CCCCCCC(CCC(=O)O)n1cnc(NC(=O)c2ccccc2C(=O)O)c1 (stereo not shown) [Example 41, 4-[(2-Carboxybenzoyl)amino]-γ-hexyl-1H-imidazole-1-butanoic acid hemihydrate] | –
33 | 0 | 955 | CCCCCCC(C(=O)O)n1cnc(NC(=O)c2ccccc2CC(=O)O)c1.O (stereo not drawn) [Example 43, 4-{[2-(Carboxymethyl)benzoyl]amino}-α-hexyl-1H-imidazole-1-aceticacid monohydrate] | –
